The target of assay [1] is T1, MKK7 (Homo sapiens, UniProt O14733).
T1 construct: purchased DiscoverX
T1 sequence (O14733 1-419): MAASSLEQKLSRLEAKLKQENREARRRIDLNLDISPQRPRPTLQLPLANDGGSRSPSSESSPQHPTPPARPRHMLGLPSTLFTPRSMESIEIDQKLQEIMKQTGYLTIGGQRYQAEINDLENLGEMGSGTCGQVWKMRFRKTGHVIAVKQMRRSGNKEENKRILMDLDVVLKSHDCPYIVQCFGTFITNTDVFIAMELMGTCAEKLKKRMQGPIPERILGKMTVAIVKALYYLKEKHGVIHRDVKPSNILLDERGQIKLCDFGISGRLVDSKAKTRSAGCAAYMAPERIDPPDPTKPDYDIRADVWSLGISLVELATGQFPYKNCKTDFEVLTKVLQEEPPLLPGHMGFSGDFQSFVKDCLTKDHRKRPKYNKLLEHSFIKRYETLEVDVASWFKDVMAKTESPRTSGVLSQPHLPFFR
Description: MKK7 binding, KdELECT assays (DiscoverX). The following applies: KdELECT. The text has this:
Figure 2 ZNL-8162 is a molecular bident for MKK7. (A) Compound structures for MKK7-targeting molecular bident (ZNL-8162) and its relatives lacking one or both cysteine-reactive groups. (B) Covalent modeling for ZNL-8162 engagement of MKK7(PDB: 6YG3). (C) MS/MS spectrum of ZNL-8162 covalently modifying Cys218 and Cys276 of MKK7. Red and yellow circles indicate ions of type y for sequences marked (1) and (2), respectively. Blue circles indicate ions of b for sequence (1). *, carbamidomethyl cysteine, Δ, oxidized methionine. (D) MKK7 binding data were obtained from KdELECT assays (DiscoverX). Data are presented as mean ± s.d. of n = 2 biologically independent samples.
Table S2. […]

Assay [2] concerns phosphorylation of EGFR, ERK1/2, and AKT. Kind of assay: Immunoblot of EGFR signaling pathway in H3255 cells. It is filed as cell-based, human. As to conditions: H3255, 6 h treatment. Here is the method:
(A) Dose–response curves for ZNL-0056 and osimertinib in H3255 cells following 72 h of treatment. Cell viability was assessed with CellTiter-Glo. Data are presented as the mean ± SEM (n = 4). Representative data from three independent experiments are shown. (B) Immunoblot assessment of the effect of ZNL-0056 on EGFR signaling pathway in H3255 cells after 6 h treatment. Representative blots from two independent experiments are shown. […] TEXT PRINTED IN THE PICTURE: (A) ZNL-0056: H3255: IC50 (nM): 471.3 | (A) Osimertinib: H3255: IC50 (nM): 27.76 […]
For infection of Ba/F3 cells, 2.5 mL of viral supernatant and 8 μg/mL polybrene was added to 2.5 million cells per well in six-well plates. The plate was centrifuged at 2500 rpm for 90 minutes at 37 °C for the spin infection. […]
Cells were lysed in RIPA buffer (150 mM NaCl, 1.0% IGEPAL® CA-630, 0.5% sodium deoxycholate, 0.1% SDS, 50 mM Tris, pH 8.0) (Sigma, Cat# R0278) with protease inhibitor and phosphatase inhibitor (Roche). The protein concentrations were measured by BCA analysis (Thermo Fisher Scientific, Cat # PI23225). […]
or IRDye 680RD goat anti-Mouse IgG (LICOR Biosciences , Cat # 926-68070) secondary antibodies at room temperature for 1 hour. The membranes were detected on Odyssey CLx system. […]

The test system of assay [3] is T2, EGFR^L858R kinase domain.
T2 construct: purified recombinant EGFR^L858R kinase domain treated by the compounds; made in house
Description: Determining sites of probe modification by MS. In kind it is biochemical. The following applies: EGFR^L858R protein, mass spectrometry. The text has this:
Covalent docking (CovDock in Schrodinger software suite) was used to predict binding modes and scores of designed bident and mono-valent molecules. Thorough mode was used for docking and top 5 poses for each molecule were inspected visually to identify the most likely binding conformation based on the known core scaffold binding mode. Hinge hydrogen bonds of the core scaffolds were used as constraints in docking calculations. […]
reactive residues, only one cysteine was specified for covalent bond formation during docking of […]
for bident molecules, a proper binding mode required the other warhead in close proximity with its intended reactive cysteine. To obtain the final predicted binding mode in Figure 2B, the pre-reaction cysteine and warhead were manually linked with proper chemical bond, and the complex was optimized using receptor-ligand complex optimization protocol in Schrodinger suite with default settings. The final optimized complex was compared against the original binding mode to ensure minimal changes to the ligand and receptor residue conformations. […]
EGFR protein was treated with indicated probe for 2 hours at 30 °C in 50 mM HEPES buffer 100 mM NaCl pH 7.5. […] Peptides were desalted by C18 and analyzed by nanoLC-MS using a Waters NanoAcquity UPLC (Waters, Milford, MA) interfaced to a Orbitrap QExactive HF mass spectrometer (ThermoFisher Scientific, San Jose, CA). […]

The results in this text go back to article PMC11212140, “Molecular Bidents with Two Electrophilic Warheads as a New Pharmacological Modality” (ACS Central Science, 2024).

By Kd is commonly meant the concentration at which binding is half-saturated. Higher therefore signals a looser complex.

`C=CC(=O)Nc1cc(C(=O)Nc2nc3cccc(C)c3n2[C@@H]2CCCCN(C(=O)C=C)C2)cs1` [ZNL-0056] yielded a dissociation constant (Kd) in assay [1] of 36 nM. Besides, the “concentration inhibiting phosphorylation of EGFR, ERK1/2, and AKT (as low as)” value in assay [2] stood at 0.1 µM. For the same compound, the “in vitro labeling of Cys797 and Cys775” value in assay [3] is on record as “high in vitro labeling efficacy”.
